Test system: GUMC-403
Assay: viability at highest tested concentration (max response) relative to DMSO (% of DMSO control); higher = less cytotoxic
Conditions: library / dose series: MIPE library, 11-point 1:3 dilution, 48 h
How it was run: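 Each figure stands for viability at the highest tested concentration compared with vehicle control. It was measured by CellTiter-Glo luminescence on a ViewLux after 48 h of exposure to 23 nL of pinned compound, with vehicle wells taken as 100% and empty wells as 0%. The cells were patient-derived GUMC-403 papilloma cells grown by conditional reprogramming, plated at 700/well in 5 μL F + Y medium in 1536-well plates.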

CCCCC(=O)O[C@]1(C(=O)CO)[C@H](C)C[C@H]2[C@@H]3CCC4=CC(=O)C=C[C@]4(C)[C@@]3(F)[C@@H](O)C[C@@]21C
viability (top concentration 46.1 µM): 121

OC1=CC2=C(C(=C1)O)C(=O)\C(=C(/O2)C3=CC(=C(O)C=C3)O)O
viability (top concentration 46.1 µM): 147

N[C@@H]1C[C@H]1c1ccccc1
viability (top concentration 46.1 µM): 108

CCOP(=O)(OCC)C(C)NC(=O)N(CCCl)N=O (configuration not stated)
viability (top concentration 46.1 µM): 111

COC(=O)[C@H](c1ccccc1Cl)N1CCc2sccc2C1
viability (top concentration 46.1 µM): 124

C/C=C/C[C@@H](C)C(=O)[C@H]1C(=O)N[C@@H](C(C)C)C(=O)N(C)CC(=O)N(C)[C@@H](CC(C)C)C(=O)N[C@@H](C(C)C)C(=O)N(C)[C@@H](CC(C)C)C(=O)N[C@@H](C)C(=O)N[C@H](C)C(=O)N(C)[C@@H](CC(C)C)C(=O)N(C)[C@@H](CC(C)C)C(=O)N(C)[C@@H](C(C)C)C(=O)N1C
viability (top concentration 46.1 µM): 90.6

COC1=CC=CC(=C1N)\C2=C\C(=O)C3=C(O2)C=CC=C3
viability (top concentration 46.1 µM): 57.1

Cn1c(=O)c2[nH]cnc2n(C)c1=O
viability (top concentration 46.1 µM): 120

CC(Oc1ccc(O)cc1)(P(=O)(O)O)P(=O)(O)O
viability (top concentration 46.1 µM): 112

O=C(O)c1ccccc1C(=O)Nc1ccc(-c2ccccc2)cc1
viability (top concentration 46.1 µM): 111

FC1=CC=C(CN2\C=C/C=C(/C(=O)N[C@@H](COC3=CC4=C(NC(=O)N4)C=C3)C5=CC=CC=C5)C2=O)C=C1F
viability (top concentration 46.1 µM): 103

C#C[C@]1(O)CC[C@H]2[C@@H]3CCc4cc(O)ccc4[C@H]3CC[C@@]21C
viability (top concentration 46.1 µM): 74.3

COc1cc2c(cc1OC)C1CC(=O)C(CC(C)C)CN1CC2 (configuration not stated)
viability (top concentration 46.1 µM): 110

COc1nccc(-c2c(-c3ccc(F)cc3)ncn2C2CCC(O)CC2)n1 (configuration not stated)
viability (top concentration 46.1 µM): 131

COC1CCC(C(=O)c2ccc3nc4c(cc3c2)CCCO4)CC1 (configuration not stated)
viability (top concentration 46.1 µM): 89.8

CN(C)CCc1c[nH]c2ccc(Cn3cncn3)cc12
viability (top concentration 46.1 µM): 100

O=C1\C=C/C[C@@H]2[C@H]3CCCN4CCC[C@@H](CN12)[C@@H]34
viability (top concentration 46.1 µM): 108

Cc1nc(-c2ccc(-c3ccc(C(=O)N4CCc5cc6c(cc54)C4(CCN(C)CC4)CO6)cc3)c(C)c2)no1
viability (top concentration 46.1 µM): 124

COc1cc(C(=O)NC2CCN(C)CC2)ccc1Nc1ncc2c(n1)N(C1CCCC1)CCC(=O)N2C(C)C
viability (top concentration 46.1 µM): 93.5

OC1=CC=C(C=C1)\C2=C\OC3=C(C(=CC(=C3)O)O)C2=O
viability (top concentration 46.1 µM): 77.6

COc1ccccc1OCC(O)COC(N)=O (configuration not stated)
viability (top concentration 46.1 µM): 117

NCCCCCC(=O)O
viability (top concentration 46.1 µM): 130

O=C(O)c1ccc(-c2c[nH]c3ncc(-c4ccccc4)cc23)cc1C1CCCC1
viability (top concentration 46.1 µM): 145

CC(C)[C@@H](N(CCCN)C(=O)C1=CC=C(C)C=C1)C/2=C(\CC3=CC=CC=C3)C(=O)C4=C(O2)C=C(Cl)C=C4
viability (top concentration 46.1 µM): 119

Cc1ccc([S+](=O)([O-])Nc2cc(Cl)ccc2C(=O)Nc2nc(-c3ccccc3)cs2)cc1
viability (top concentration 46.1 µM): 104

Cc1ccc([S+](=O)([O-])NC(=O)NN2CC3CCCC3C2)cc1 (configuration not stated)
viability (top concentration 46.1 µM): 109

OC1=CC=C(C=C1)\C2=C\OC3=C(C=CC(=C3)O)C2=O
viability (top concentration 46.1 µM): 133

NC(=O)c1ccc2[nH]ccc2c1
viability (top concentration 46.1 µM): 122

CC(C)(CO)[C@@H](O)C(=O)NCCC(=O)O
viability (top concentration 46.1 µM): 82.6

COc1ccc2c(c1)CN(C)CC2c1ccc(Cl)c(Cl)c1 (configuration not stated)
viability (top concentration 46.1 µM): 129

CNC(=O)c1ccccc1Sc1ccc2c(/C=C/c3ccccn3)n[nH]c2c1
viability (top concentration 46.1 µM): 104

OC1=CC(=C(C=C1)\C2=C(O)\C(=O)C3=C(O2)C=C(O)C=C3O)O
viability (top concentration 46.1 µM): 93.9

C[C@H](O)[C@H]1[C@@H]2[C@H](C)C(=C(\N2C1=O)C(O)=O)/S[C@@H]3CN[C@H](CN[S+](N)([O-])=O)C3
viability (top concentration 46.1 µM): 120

OCc1ccc(-c2nn(Cc3ccccc3)c3ccccc23)o1
viability (top concentration 46.1 µM): 94.3

CC(C)c1cc(C(C)C)c(CC(=O)N[S+](=O)([O-])Oc2c(C(C)C)cccc2C(C)C)c(C(C)C)c1
viability (top concentration 46.1 µM): 99.7

CCO[C@@H]1OC(=O)C[C@@H]1NC(=O)[C@@H]1CCCN1C(=O)[C@@H](NC(=O)c1ccc(N)c(Cl)c1)C(C)(C)C
viability (top concentration 46.1 µM): 138

COc1cc(OC)c(OC)cc1C=O
viability (top concentration 46.1 µM): 107

O=c1[nH]c(=O)n([C@H]2C[C@H](O)[C@@H](CO)O2)cc1/C=C/Br
viability (top concentration 46.1 µM): 116

CC(C)OC(=O)C(C)(C)Oc1ccc(C(=O)c2ccc(Cl)cc2)cc1
viability (top concentration 46.1 µM): 117

O=C(c1ccc(/C=C/c2n[nH]c3ccccc23)cc1)N1CCNCC1
viability (top concentration 46.1 µM): 86.5

COc1c(N2C[C@@H]3CCCN[C@@H]3C2)c(F)cc2c(=O)c(C(=O)O)cn(C3CC3)c12.Cl.O
viability (top concentration 46.1 µM): 133

Cc1cc(Nc2ncnc3ccc(-c4ccc(CNCC[S+](C)(=O)[O-])o4)cc23)ccc1Oc1ccn2ncnc2c1
viability (top concentration 46.1 µM): 99.8

CCCc1nc2c(C)cc(-c3nc4ccccc4n3C)cc2n1Cc1ccc(-c2ccccc2C(=O)O)cc1
viability (top concentration 46.1 µM): 118

CN1C(=O)C[C@H](C(=O)N[C@@H](Cc2cnc[nH]2)C(=O)N2CCC[C@H]2C(N)=O)NC1=O
viability (top concentration 46.1 µM): 103

CN1CCN(c2c(F)cc3c(=O)c(C(=O)O)cn(CCF)c3c2F)CC1
viability (top concentration 46.1 µM): 104

C[C@](O)(CS(=O)(=O)c1ccc(F)cc1)C(=O)Nc1ccc(C#N)c(C(F)(F)F)c1
viability (top concentration 46.1 µM): 128

O=C(NCC1CCOCC1)c1cnc(Nc2ccc(Cl)cc2Cl)nc1C(F)(F)F
viability (top concentration 46.1 µM): 141

Oc1ccc([C@@H]2Oc3ccc(O)cc3[C@@H]3CCC[C@@H]32)cc1
viability (top concentration 46.1 µM): 96.3

CCOc1cc(/C=C2/C(=O)N(c3ccccc3)N=C2C)cc(Cl)c1OCC(=O)OC
viability (top concentration 46.1 µM): 99.2

Nc1ncnc2c1nc(Cl)n2[C@@H]1O[C@H](CO)[C@@H](O)[C@H]1O
viability (top concentration 46.1 µM): 46

Cn1cnc2c(F)c(Nc3ccc(Br)cc3F)c(C(=O)NOCCO)cc21
viability (top concentration 46.1 µM): 89.6

COc1cc(O)c2c(c1)C(=O)c1cc(C)cc(O)c1C2=O
viability (top concentration 23 µM): 114

O=C1[O][Pt]2([NH]C3CCCCC3[NH]2)[O]C1=O (configuration not stated)
viability (top concentration 46.1 µM): 113

C[C@]12CC[C@@H]3c4ccc(O)cc4CC[C@H]3[C@@H]1CC[C@@H]2O
viability (top concentration 46.1 µM): 86.3

Cc1ccccc1C(=O)c1ccc(Nc2ccc(Br)cc2N)cc1Cl
viability (top concentration 46.1 µM): 103

C=CC(=O)Nc1cccc(Oc2nc(Nc3ccc(N4CCN(C)CC4)cc3)ncc2Cl)c1
viability (top concentration 46.1 µM): 26.8

Cc1ccc(-c2cc(C(F)(F)F)nn2-c2ccc([S+](N)(=O)[O-])cc2)cc1
viability (top concentration 46.1 µM): 114

Cn1cc(/C=C/C(=O)c2cccc(F)c2)cc1/C=C/C(=O)NO
viability (top concentration 46.1 µM): 103

NC/1=N/C(=O)N(/C=C1F)[C@H]2CS[C@H](CO)O2
viability (top concentration 46.1 µM): 115

CC[C@H](NC(C)C)[C@H](O)c1ccc(O)c2[nH]c(=O)ccc12
viability (top concentration 46.1 µM): 123

Cc1ncc([N+](=O)[O-])n1CCO
viability (top concentration 46.1 µM): 106

CC(C)(O)/C=C\C(=O)[C@](C)(O)[C@H]1[C@H](O)C[C@]2(C)[C@@H]3CC=C4[C@@H](C=C(O)C(=O)C4(C)C)[C@]3(C)C(=O)C[C@@]12C
viability (top concentration 46.1 µM): 83.7

CNC1CCCN(c2c(F)cc3c(=O)c(C(=O)O)cn(C4CC4)c3c2OC)C1 (configuration not stated)
viability (top concentration 46.1 µM): 121

CNCC(O)c1ccc(O)cc1 (configuration not stated)
viability (top concentration 46.1 µM): 132

OC1=CC2=C(C(=O)\C=C(/O2)C3=CC=CC=C3)C(=C1O)O
viability (top concentration 46.1 µM): 114

CC(C)(Cc1ccc2ccccc2c1)NC[C@@H](O)COc1cccc(Cl)c1C#N
viability (top concentration 46.1 µM): 106

Cc1cccc(-c2[nH]c(C(C)(C)C)nc2-c2ccc3c(c2)OCO3)n1
viability (top concentration 46.1 µM): 118
